Publication PMC5320518, “Novel Liver-targeted conjugates of Glycogen Phosphorylase Inhibitor PSN-357 for the Treatment of Diabetes: Design, Synthesis, Pharmacokinetic and Pharmacological Evaluations” (Scientific Reports, 2017)
Where two headings read alike, the source gives them in different places.

Columns and labels:
[1] = target: T1, rabbit muscle GPa (RMGPa) (Oryctolagus cuniculus, UniProt P00489); experiment: RMGPa inhibition assay (phosphate release from glucose-1-phosphate); format: biochemical; details: mean ± S.D. of three determinations; NI means no inhibition
T1 sequence (P00489 2-843 limits assumed): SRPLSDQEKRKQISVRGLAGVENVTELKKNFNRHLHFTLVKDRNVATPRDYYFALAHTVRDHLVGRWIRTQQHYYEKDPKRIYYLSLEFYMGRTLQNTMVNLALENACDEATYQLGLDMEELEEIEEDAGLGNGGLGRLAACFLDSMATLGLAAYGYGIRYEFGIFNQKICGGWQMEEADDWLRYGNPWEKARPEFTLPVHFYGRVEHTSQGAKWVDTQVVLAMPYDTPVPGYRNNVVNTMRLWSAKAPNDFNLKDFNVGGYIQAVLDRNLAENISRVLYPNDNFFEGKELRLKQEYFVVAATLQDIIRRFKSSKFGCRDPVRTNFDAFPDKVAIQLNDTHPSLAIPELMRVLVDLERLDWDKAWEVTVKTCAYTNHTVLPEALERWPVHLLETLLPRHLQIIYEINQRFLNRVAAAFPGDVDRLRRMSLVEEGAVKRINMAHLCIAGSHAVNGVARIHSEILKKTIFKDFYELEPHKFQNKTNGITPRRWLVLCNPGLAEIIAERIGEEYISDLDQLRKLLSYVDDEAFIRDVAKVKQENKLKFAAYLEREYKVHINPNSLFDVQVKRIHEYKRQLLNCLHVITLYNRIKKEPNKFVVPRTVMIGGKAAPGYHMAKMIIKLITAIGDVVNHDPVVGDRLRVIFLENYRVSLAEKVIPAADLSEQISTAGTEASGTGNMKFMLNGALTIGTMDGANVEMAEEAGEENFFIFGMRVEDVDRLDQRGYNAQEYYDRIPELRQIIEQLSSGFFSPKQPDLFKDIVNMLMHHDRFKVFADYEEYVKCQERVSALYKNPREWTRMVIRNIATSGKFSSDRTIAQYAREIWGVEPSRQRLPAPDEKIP
Description: All the compounds were evaluated for their inhibitory activity against rabbit muscle GPa (RMGPa). The activity of RMGPa was measured through detecting the release of phosphate from glucose-1-phosphate in the direction of glycogen synthesis. CP-91149, a well-known allosteric GP inhibitor, which shares the same binding site with PSN-357, was used as the positive control and the results are summarized in Table 1[21]. […] This remarkable loss of activity was probably due to the direct steric interference by such bulky substituent of cholic acid group. […] The results is consistent with the SARs of PSN-357 that the hydroxyl of piperidine is not an essential group for the GP inhibitory activity that could be modified slightly.
The inhibitory activity of the test compounds against rabbit muscle glycogen phosphorylase a (GPa) was monitored using microplate reader (BIO-RAD) based on the published method. In brief, GPa activity was measured in the direction of glycogen synthesis by the release of phosphate from glucose-1-phosphate. Each test compound was dissolved in DMSO and diluted at different concentrations for IC50 determination. The enzyme was added into 100 μL of buffer containing 50 mM Hepes (pH = 7.2), 100 mM KCl, 2.5 mM MgCl2, 0.5 mM glucose-1-phosphate, 1 mg/mL glycogen and the test compound in 96-well microplates (Costar). After the addition of 150 μL of 1 M HCl containing 10 mg/mL ammonium molybdate and 0.38 mg/mL malachite green, reactions were run at 22 °C for 25 min, and then the phosphate absorbance was measured at 655 nm. The IC50 values were estimated by fitting the inhibition data to a dose-dependent curve using a logistic derivative equation.

[2] = Stability in mouse liver microsomes (MLM); format: in vitro ADME; details: for CLint scaled at 10 μM / half-life at 10 μM / microsomal CLint at 10 μM: C57BL/6, pH 7.4, n = 3
Description: Additionally, the compounds’ stability in microsome were evaluated by measuring the rate of compounds consumpation in MLM and the results are shown in Table 3.
The microsomal pellet was suspended in potassium phosphate buffer (100 mM, pH 7.4), 10 μM test compound or positive control (diclofenac) was added. Liver microsomes from C57BL/6 mice (BD Gentest) were pooled. The mixture of microsome solution and compound was incubated at 37 °C for about 10 min in the presence of a NADPH-regenerating system, consisting of 0.02 M DL-isocitric acid (trisodium salt), 0.1 mg/mL isocitrate dehydrogenase and 1 mM NADPH. The addition of ice-cold CH3CN (including 100 ng/mL tolbutamide as internal standard) terminated the reaction. The mixture was vortexed for approx (30 s), centrifuged (20 min, 4000 rpm) and the supernatant was collected and analysed by LC-MS/MS method.

[3] = Stability in mouse plasma; format: in vitro ADME; details: 2 μM, 37 °C, 120-min test
Description: Frozen plasma from male C57 BL/6 mice was incubated for 5 min at 37 °C before the addition of the test compound. Then prepared 2 μM incubation sample, and aliquots of the incubation mixtures (100 μL) were taken at predetermined time points (10, 30, 60, 120 min) at 37 °C. After incubation, the mixtures was added 400 μL of 50% ACN/50% MeOH containing internal standard (IS, 200 ng/mL Tolbutamide and 20 ng/mL Buspirone) to each sample tube and then centrifuged at 13000 rpm for 8 min. Blank incubations in the absence of the test compound were also performed. The analyses of test compounds were performed by LC-MS/MS analysis.

HepG2 cells = experiment: Glycogenolysis inhibition in HepG2 cells; format: cell-based, human; details: HepG2 cells, 60-min incubation with 0.3 nM glucagon, mean ± S.D. of three, NI means no inhibition, read-out: IC50 (glycogenolysis inhibition, HepG2 cells)
Description: To evaluate the effects of all compounds in cells, the glycogenolysis assays were established in both rat and human liver cells based on the published method. […] The inhibitory activities of the derivatives of PSN-357 (e.g. 25–28) were also explored. It is not surprising that the derivatives still retained micromolar inhibitory activities. Introduction of steric bulks to the hydroxyl group (e.g. 33, 40, 42, 48) led to a complete loss of activity. Data analysis indicated no clear SAR for the substitutents in the cell-based assays.
The inhibition of hepatic glycogenolysis was monitored by the measurement of liver glycogen, which was done quantitatively by the anthrone reagent (Sigma) colorimetric method based on the published method. Isolated rat hepatocytes or HepG2 cells (Sigma) were treated with the test compound or DMSO solvent (final concentration, 0.10%), followed by 60-min incubation with 0.3 nM glucagon (GGN). Assays were terminated by centrifugation, and cells were digested with 30% KOH followed by glycogen determination. The IC50 values were estimated by fitting the inhibition data to a dose-dependent curve using a logistic derivative equation.

| SMILES | IC50 [1] [µM] | metabolic stability in MLM (in words) [2] | CLint scaled at 10 μM [2] [mL/min/kg] | half-life at 10 μM [2] [h] | microsomal CLint at 10 μM [2] [µL/min/mg] | stability in mouse plasma (in words) [3] | IC50 (HepG2 cells; Homo sapiens, HepG2, 1 h) [µM] | degradation in mouse plasma [3] [%] | IC50 (HepG2 cells) [µM] |
| --- | --- | --- | --- | --- | --- | --- | --- | --- | --- |
| O=C(N[C@@H](Cc1ccc(F)cc1)C(=O)N1CCC(O)CC1)c1cc2cc(Cl)ncc2[nH]1 [PSN-357] | 0.42 ± 0.01 | good metabolic stability | < 38 | > 2.42 | < 9.6 | relatively stable | 3.1 ± 0.37 | – | – |
| C[C@H](CCC(=O)N[C@@H](CC(=O)O)C(=O)OC1CCN(C(=O)[C@H](Cc2ccc(F)cc2)NC(=O)c2cc3cc(Cl)ncc3[nH]2)CC1)[C@H]1CC[C@H]2[C@@H]3[C@H](O)C[C@@H]4C[C@H](O)CC[C@]4(C)[C@H]3C[C@H](O)[C@]12C [Conjugate 6] | 31.2 ± 11.1 | considerable metabolic stability | 64.9 | 1.41 | 16.4 | – | 6.1 | ~12 | 6.12 ± 1.38 |
